Assay results reported in US9593110B2, “Neprilysin inhibitors” (Theravence Biopharma R&D IP, LLC, priority 2014, dated 2017).

Biological target: human NEP (Homo sapiens (Human), UniProt P08473)
Test: In vitro enzyme inhibition assay at human NEP
Settings: pKi, recombinant human NEP, fluorogenic peptide substrate, 37° C.
Experimental: The inhibitory activities of compounds at human and rat neprilysin (EC 3.4.24.11; NEP) and human angiotensin converting enzyme (ACE) were determined using in vitro assays as described below.
The assays were performed in 384-well white opaque plates at 37° C. using the fluorogenic peptide substrates at a concentration of 10 μM in Assay Buffer (NEP: 50 mM HEPES, pH 7.5, 100 mM NaCl, 0.01% polyethylene glycol sorbitan monolaurate (Tween-20), 10 μM ZnSO4; ACE: 50 mM HEPES, pH 7.5, 100 mM NaCl, 0.01% Tween-20, 1 μM ZnSO4).
Test compounds were assayed over the range of concentrations from 10 μM to 20 pM. Test compounds were added to the enzymes and incubated for 30 minute at 37° C. prior to initiating the reaction by the addition of substrate.
Plates were read on a fluorometer with excitation and emission wavelengths set to 320 nm and 405 nm, respectively Inhibition constants were obtained by nonlinear regression of the data using the equation (GraphPad Software, Inc., San Diego, Calif.): v=v0/[1+(I/K′)] where v is the reaction rate, v0 is the uninhibited reaction rate, I is the inhibitor concentration and K′ is the apparent inhibition constant.

human NEP, sequence (P08473 52-750): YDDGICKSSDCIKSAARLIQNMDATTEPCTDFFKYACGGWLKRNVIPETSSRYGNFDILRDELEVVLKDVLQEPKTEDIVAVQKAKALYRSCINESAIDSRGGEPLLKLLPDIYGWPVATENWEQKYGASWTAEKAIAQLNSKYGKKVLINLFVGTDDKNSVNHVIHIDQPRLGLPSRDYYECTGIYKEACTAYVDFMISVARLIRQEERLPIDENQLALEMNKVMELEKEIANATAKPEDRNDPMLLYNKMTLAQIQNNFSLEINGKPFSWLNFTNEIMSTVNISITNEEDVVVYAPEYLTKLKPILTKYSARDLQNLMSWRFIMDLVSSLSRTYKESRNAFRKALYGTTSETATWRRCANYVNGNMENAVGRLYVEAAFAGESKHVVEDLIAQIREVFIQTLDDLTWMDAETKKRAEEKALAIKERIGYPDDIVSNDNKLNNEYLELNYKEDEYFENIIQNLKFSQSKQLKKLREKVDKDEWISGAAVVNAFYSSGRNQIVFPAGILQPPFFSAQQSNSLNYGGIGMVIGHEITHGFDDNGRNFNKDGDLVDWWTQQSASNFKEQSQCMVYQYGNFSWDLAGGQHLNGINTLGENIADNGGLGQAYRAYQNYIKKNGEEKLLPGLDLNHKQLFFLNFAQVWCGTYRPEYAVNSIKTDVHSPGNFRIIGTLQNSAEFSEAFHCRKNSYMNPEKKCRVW

Row | Ki [nM] | SMILES
1 | 1.26 to 3.16 | CN(C)C[C@H](C[C@@H](Cc1ccc(-c2cc(Cl)ccc2F)cc1)NC(=O)c1cnn[nH]1)C(=O)O [Example 75, (2S,4S)-5-(5′-Chloro-2′-fluorobiphenyl-4-yl)-2-dimethylaminomethyl-4-[(3H-[1,2,3]triazole-4-carbonyl)amino]pentanoic Acid]
2 | 1.26 to 3.16 | O=C(N[C@H](Cc1ccc(-c2cc(Cl)ccc2F)cc1)CC(C(=O)O)c1cccs1)c1cnn[nH]1 (stereo in doubt) [Example 78, (S)-5-(5′-Chloro-2′-fluorobiphenyl-4-yl)-2-thiophen-2-yl-4-[(3H-[1,2,3]triazole-4-carbonyl)amino]pentanoic Acid]
3 | 1.26 to 3.16 | O=C(N[C@H](Cc1ccc(-c2cc(Cl)ccc2F)cc1)C[C@@H](Cc1noc(=O)[nH]1)C(=O)O)c1cnn[nH]1 [Example 66, (2S,4S)-5-(5′-Chloro-2′-fluorobiphenyl-4-yl)-2-(5-oxo-4,5-dihydro-[1,2,4]oxadiazol-3-ylmethyl)-4-[(3H-[1,2,3]triazole-4-carbonyl)amino]pentanoic Acid]
4 | 1.26 to 3.16 | O=C(N[C@H](Cc1ccc(-c2ccccc2)cc1)C[C@@H](COCCO)C(=O)O)c1c[nH]nn1 [Example 11, (2S,4S)-5-Biphenyl-4-yl-2-(2-hydroxyethoxymethyl)-4-[(1H-[1,2,3]triazole-4-carbonyl)amino]pentanoic Acid]
5 | ≤ 1 | CC1(O)CN(C[C@H](C[C@@H](Cc2ccc(-c3cc(Cl)ccc3F)cc2)NC(=O)c2c[nH]nn2)C(=O)O)C1 [Example 101b, (2S,4S)-5-(5′-Chloro-2′-fluorobiphenyl-4-yl)-2-(3-hydroxy-3-methylazetidin-1-ylmethyl)-4-[(1H-[1,2,3]triazole-4-carbonyl)amino]pentanoic Acid]
6 | 1.26 to 3.16 | O=C(N[C@H](Cc1ccc(-c2cc(Cl)ccc2F)cc1)C[C@@H](CNCCO)C(=O)O)c1cnn[nH]1 (single isomer, unassigned) [Example 48b]
7 | ≤ 1 | O=C(N[C@H](Cc1ccc(-c2cc(Cl)ccc2F)cc1)C[C@@H](CN1CC(CCO)C1)C(=O)O)c1c[nH]nn1 [Example 105, (2S,4S)-5-(5′-Chloro-2′-fluorobiphenyl-4-yl)-2-[3-(2-hydroxyethyl)azetidin-1-ylmethyl]-4-[(1H-[1,2,3]triazole-4-carbonyl)amino]pentanoic Acid]
8 | 1.26 to 3.16 | COCCCNC[C@H](C[C@@H](Cc1ccc(-c2cc(Cl)ccc2F)cc1)NC(=O)c1cnn[nH]1)C(=O)O [Example 74, (2S,4S)-5-(5′-Chloro-2′-fluorobiphenyl-4-yl)-2-[(3-methoxypropylamino)-methyl]-4-[(3H-[1,2,3]triazole-4-carbonyl)amino]pentanoic Acid]
9 | ≤ 1 | NCCCC(=O)N[C@H](C[C@@H](Cc1ccc(-c2cc(Cl)ccc2F)cc1)NC(=O)c1cnn[nH]1)C(=O)O [Example 40, (2R,4R)-2-(4-Aminobutyrylamino)-5-(5′-chloro-2′-fluorobiphenyl-4-yl)-4-[(3H-[1,2,3]triazole-4-carbonyl)amino]pentanoic Acid]
10 | 3.16 to 10 | CCOC(=O)[C@H](N)C[C@@H](Cc1ccc(-c2cc(Cl)ccc2F)cc1)NC(=O)c1cc(O)no1 [Example 16-11, (2R,4R)-2-Amino-5-(5′-chloro-2′-fluorobiphenyl-4-yl)-4-[(3-hydroxyisoxazole-5-carbonyl)amino]pentanoic acid ethyl ester]
11 | ≤ 1 | Cc1cnc(C(=O)N[C@H](Cc2ccc(-c3cc(Cl)ccc3F)cc2)C[C@@H](CNC(=O)C(C)(C)N)C(=O)O)o1 [Example 45, (2S,4S)-2-[(2-Amino-2-methylpropionylamino)methyl]-5-(5′-chloro-2′-fluorobiphenyl-4-yl)-4-[(5-methyloxazole-2-carbonyl)-amino]pentanoic Acid]
12 | 1.26 to 3.16 | COC(=O)N[C@H](C[C@@H](Cc1ccc(-c2ccccc2)cc1)NC(=O)c1c[nH]nn1)C(=O)O [Example 31, (2R,4R)-5-Biphenyl-4-yl-2-methoxycarbonylamino-4-[(1H-[1,2,3]triazole-4-carbonyl)amino]pentanoic Acid]
13 | 3.16 to 10 | CC(=O)N[C@H](C[C@@H](Cc1ccc(-c2ccccc2)cc1)NC(=O)c1c[nH]nn1)C(=O)O [Example 26, (2R,4R)-2-Acetylamino-5-biphenyl-4-yl-4-[(1H-[1,2,3]triazole-4-carbonyl)amino]pentanoic Acid]

Row | SMILES | Ki [nM]
14 | NC[C@H](C[C@@H](Cc1ccc(-c2cc(Cl)ccc2F)cc1)NC(=O)c1cnsc1)C(=O)O [Example 21-7, (2S,4S)-2-Aminomethyl-5-(5′-chloro-2′-fluorobiphenyl-4-yl)-4-[(isothiazole-4-carbonyl)amino]pentanoic acid] | 1.26 to 3.16
15 | N#CC[C@H](C[C@@H](Cc1ccc(-c2cc(Cl)ccc2F)cc1)NC(=O)c1cnsc1)C(=O)O [Example 52-3, (2S,4S)-5-(5′-Chloro-2′-fluorobiphenyl-4-yl)-2-cyanomethyl-4-[(isothiazole-4-carbonyl)amino]pentanoic acid] | 1.26 to 3.16
16 | CCOC[C@H](C[C@@H](Cc1ccc(-c2cc(Cl)ccc2F)cc1)NC(=O)c1cocn1)C(=O)O [Example 7-7, (2S,4S)-5-(5′-Chloro-2′-fluorobiphenyl-4-yl)-2-ethoxymethyl-4-[(oxazole-4-carbonyl)amino]pentanoic acid] | 1.26 to 3.16
17 | Cc1cnc(C(=O)N[C@H](Cc2ccc(-c3cc(Cl)ccc3F)cc2Cl)C[C@H](N)C(=O)O)o1 [Example 18-4, (2S,4R)-2-Amino-5-(3,5′-dichloro-2′-fluorobiphenyl-4-yl)-4-[(5-methyloxazole-2-carbonyl)amino]pentanoic acid] | 3.16 to 10
18 | CS(=O)(=O)N[C@H](C[C@@H](Cc1ccc(-c2ccccc2)cc1)NC(=O)c1c[nH]nn1)C(=O)O [Example 47, (2R,4R)-5-Biphenyl-4-yl-2-methanesulfonylamino-4-[(1H-[1,2,3]triazole-4-carbonyl)amino]pentanoic Acid] | 3.16 to 10
19 | CC(C)c1coc(C(=O)N[C@H](Cc2ccc(-c3cc(Cl)ccc3F)cc2)C[C@@H](NC(=O)[C@H](N)CO)C(=O)O)n1 [Example 42-1, (2R,4R)-2-((R)-2-Amino-3-hydroxypropionylamino)-5-(5′-chloro-2′-fluorobiphenyl-4-yl)-4-[(4-isopropyloxazole-2-carbonyl)-amino]pentanoic Acid] | 1.26 to 3.16
20 | COc1cnc(C(=O)N[C@H](Cc2ccc(-c3cc(Cl)ccc3F)cc2Cl)C[C@H](N)C(=O)O)o1 [Example 18-12, (2S,4R)-2-Amino-5-(3,5′-dichloro-2′-fluoro-biphenyl-4-yl)-4-[(5-methoxyoxazole-2-carbonyl)amino]pentanoic acid] | 3.16 to 10

Same assay, conditions: recombinant human NEP, fluorogenic peptide substrate, 37° C.

Row | pKi | SMILES
21 | ≧9.0 | COC[C@H](C[C@@H](Cc1ccc(-c2cc(Cl)ccc2F)cc1)NC(=O)c1ccc(Cl)cn1)C(=O)O [Example 2-12, (2S,4S)-5-(5′-Chloro-2′-fluorobiphenyl-4-yl)-4-[(5-chloro-pyridine-2-carbonyl)-amino]-2-methoxymethylpentanoic acid]
22 | ≧9.0 | COC[C@H](C[C@@H](Cc1ccc(-c2cc(Cl)ccc2F)cc1)NC(=O)c1cc(O)no1)C(=O)O [Example 2-5, (2S,4S)-5-(5′-Chloro-2′-fluorobiphenyl-4-yl)-4-[(3-hydroxyisoxazole-5-carbonyl)-amino]-2-methoxymethylpentanoic acid]
23 | ≧9.0 | CC(=O)c1cc(C(=O)N[C@H](Cc2ccc(-c3cc(Cl)ccc3F)cc2)C[C@@H](N)C(=O)O)[nH]n1 [Example 16-9, (2R,4R)-4-[(5-Acetyl-2H-pyrazole-3-carbonyl)amino]-2-amino-5-(5′-chloro-2′-fluoro-biphenyl-4-yl)pentanoic acid]
24 | ≧9.0 | NC[C@H](C[C@@H](Cc1ccc(-c2cc(Cl)ccc2F)cc1)NC(=O)c1c[nH]nn1)C(=O)O [Example 20, (2S,4S)-2-Aminomethyl-5-(5′-chloro-2′-fluorobiphenyl-4-yl)-4-[(1H-[1,2,3]triazole-4-carbonyl)amino]pentanoic Acid]
25 | ≧9.0 | COC[C@H](C[C@@H](Cc1ccc(-c2cccc(Br)c2)cc1)NC(=O)c1cnn[nH]1)C(=O)O [Example 80, (2S,4S)-5-(3′-Bromobiphenyl-4-yl)-2-methoxymethyl-4-[(3H-[1,2,3]triazole-4-carbonyl)amino]pentanoic Acid]
26 | ≧9.0 | COC[C@H](C[C@@H](Cc1ccc(-c2cccc(Cl)c2)cc1)NC(=O)c1noc(=O)[nH]1)C(=O)O [Example 4-3, (2S,4S)-5-(3′-Chlorobiphenyl-4-yl)-2-methoxymethyl-4-[(5-oxo-4,5-dihydro-[1,2,4]oxadiazole-3-carbonyl)amino]pentanoic acid]
27 | ≧9.0 | CCOC[C@H](C[C@@H](Cc1ccc(-c2cc(Cl)ccc2F)cc1)NC(=O)c1n[nH]c(C(F)(F)F)n1)C(=O)O [Example 6, (2S,4S)-5-(5′-Chloro-2′-fluorobiphenyl-4-yl)-2-ethoxymethyl-4-[(5-trifluoromethyl-1H-[1,2,4]triazole-3-carbonyl)amino]pentanoic Acid]
28 | ≧9.0 | CCOC[C@H](C[C@@H](Cc1ccc(-c2cc(Cl)ccc2F)cc1)NC(=O)c1ncco1)C(=O)O [Example 7-6, (2S,4S)-5-(5′-Chloro-2′-fluorobiphenyl-4-yl)-2-ethoxymethyl-4-[(oxazole-2-carbonyl)amino]pentanoic acid]
29 | ≧9.0 | N[C@H](C[C@@H](Cc1ccc(-c2cc(Cl)ccc2F)cc1)NC(=O)c1cc(O)no1)C(=O)O [Example 16-28, (2R,4R)-2-Amino-5-(5′-chloro-2′-fluorobiphenyl-4-yl)-4-[(3-hydroxyisoxazole-5-carbonyl)amino]pentanoic acid]
30 | ≧9.0 | NCCC(=O)N[C@H](C[C@@H](Cc1ccc(-c2cc(Cl)ccc2F)cc1)NC(=O)c1cnn[nH]1)C(=O)O [Example 41, (2R,4R)-2-(3-Aminopropionylamino)-5-(5′-chloro-2′-fluoro-biphenyl-4-yl)-4-[(3H-[1,2,3]triazole-4-carbonyl)amino]pentanoic Acid]

Row | SMILES | pKi
31 | CN(C)CCCC(=O)N[C@H](C[C@@H](Cc1ccc(-c2cc(Cl)ccc2F)cc1)NC(=O)c1c[nH]nn1)C(=O)O [Example 73, (2R,4R)-5-(5′-Chloro-2′-fluorobiphenyl-4-yl)-2-(4-dimethylaminobutyrylamino)-4-[(1H-[1,2,3]triazole-4-carbonyl)amino]pentanoic Acid] | ≧9.0
